In US9440992B2, “5,7-disubstituted thiazolo[4,5-D]pyrimidines as chemokine inhibitors” (Acturum Life Science AB, priority 2005, dated 2016):
pKi: −log10 of the molar value.

Legend:
CX3CR1 = target: T1, CX3CR1 (Homo sapiens, UniProt P49238); assay: [125I]-fractalkine competition receptor binding assay on hCX3CR1 membranes; details: 25° C. for 24 h
T1 construct: expressed in transfected cells; host or cells: human embryonic kidney suspension (HEKS) 293 cell line stably expressing chimeric G-protein Gαqi5; membranes
T1 sequence (P49238 1-355): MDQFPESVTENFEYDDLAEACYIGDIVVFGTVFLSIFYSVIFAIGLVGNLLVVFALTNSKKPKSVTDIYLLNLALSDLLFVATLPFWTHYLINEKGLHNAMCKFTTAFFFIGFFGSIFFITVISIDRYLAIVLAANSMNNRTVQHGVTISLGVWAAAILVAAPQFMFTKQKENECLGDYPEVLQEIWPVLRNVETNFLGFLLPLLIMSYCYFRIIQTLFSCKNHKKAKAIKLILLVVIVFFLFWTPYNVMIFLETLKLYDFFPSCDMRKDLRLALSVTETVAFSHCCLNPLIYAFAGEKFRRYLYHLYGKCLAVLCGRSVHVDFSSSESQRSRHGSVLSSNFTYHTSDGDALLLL

CXCR2 = target: T2, CXCR2 (Homo sapiens, UniProt P25025); assay: [125I]-hIL-8 competition binding (SPA) on membranes of cells expressing human CXCR2; details: receptor binding, [125I]-hIL-8, RT for 4 h
T2 construct: cultured under geneticin/G418 selection; membranes
T2 sequence (P25025 1-360): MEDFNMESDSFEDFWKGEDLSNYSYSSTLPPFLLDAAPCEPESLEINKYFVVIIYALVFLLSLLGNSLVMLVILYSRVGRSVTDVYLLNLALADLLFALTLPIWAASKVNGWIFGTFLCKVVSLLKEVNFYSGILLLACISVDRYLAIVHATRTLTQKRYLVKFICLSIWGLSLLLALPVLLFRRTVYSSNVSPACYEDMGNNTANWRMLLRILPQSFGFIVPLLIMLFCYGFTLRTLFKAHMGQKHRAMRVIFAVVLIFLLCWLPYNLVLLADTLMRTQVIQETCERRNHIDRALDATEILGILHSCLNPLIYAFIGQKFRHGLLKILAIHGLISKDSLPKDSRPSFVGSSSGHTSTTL
Protocol: Recombinant human fractalkine (hCX3CL1) and recombinant human interleukin-8 (IL-8 or hCXCL8) were purchased from PeproTech Inc., UK. Recombinant [^125I]-fractalkine (human) and [^125I] hIL-8 with the specific activity of 2200 Ci/mmol, was purchased from NEN® Life Science Products, Inc., UK. Fluo4-AM was purchased from Molecular Probes, US. All other chemicals were of analytical grade.
Cells expressing human CXCR2 obtained from AstraZeneca Charnwood are cultured in EMEM containing Glutamax and supplemented with 10% FBS (from PAA, Austria), 1% non-essential amino acids (NEAA), 100 U/mL penicillin and 100 μg/mL streptomycin (PEST) and 500 μg/mL geneticin/G418.
Cells are grown at 37° C. and 5% CO2 and harvested at 60-80% confluence in buffer containing 10 mM Tris-HCl pH 7.4, 5 mM EDTA, 0.1 mg/mL bacitracin. The cells are centrifuged at 300×g for 10 min and the pellet is resuspended in harvesting buffer (10 mM Tris-HCl, pH 7.4, 5 mM ethylenediaminetetra-aceticacid (EDTA) and 0.1 mg/mL bacitracin), pooled and homogenised using a Dounce homogeniser. The homogenate is centrifuged in 48000×g for 10 min and resuspended in harvesting buffer using Ultra-Turrax T8. Membrane aliquots are stored at −80° C. Protein concentration was determined in microtiter plates as described by Harrington (1990, Anal. Biochem. 186, 285-287).
The [^125I]-hIL-8 competition binding studies are performed in singlicates in white clear bottom 96-well isoplates with a final volume of 200 μL and each well contains 150 pM [^125I]-hIL-8 (specific activity 2200 Ci/mmol), membrane-SPA preparation equivalent to 20 pM receptors and 1.5 mg SPA-beads in assay buffer [50 mM HEPES-KOH pH 7.4, 10 mM MgCl2, 1 mM EDTA, 0.5% (w/v) gelatin]. The test compounds were treated as above. The non-specific binding is determined in the presence of 500 nM unlabelled hIL-8. The agonist hIL-8 (a concentration-response curve from 3 pM to 30 nM), is used as reference compound at each test occasion. […] The binding reaction is started by addition of 140 μL membrane-SPA preparation, and the samples are incubated in dark at RT for 4 h. Assay plates are counted in a liquid scintillation counter (Wallac MicroBeta® TriLux 1450 from PerkinElmer, USA).

Row | SMILES | pKi (CX3CR1) | pKi (CXCR2)
1 | CCC(Sc1nc(N[C@@H](CO)CC(C)C)c2sc(N)nc2n1)c1ccccc1 (stereo partly drawn) | 8.51 | 5.56
2 | CC(C)C[C@H](CO)Nc1nc(SC(C)c2ccccc2)nc2nc(N)sc12 (stereo partly drawn) | 8.42 | 5.46
3 | CC(C)C[C@H](CO)Nc1nc(SC(C)c2ccccc2Cl)nc2nc(N)sc12 (stereo partly drawn) | 8.23 | 5.25
4 | CC(C)C[C@H](CO)Nc1nc(S[C@@H](C)c2cccc(C#N)c2)nc2nc(N)sc12 | 7.85 | 5.38
5 | CCC[C@H](CO)Nc1nc(S[C@@H](C)c2ccccc2)nc2nc(N)sc12 | 7.28 | 5.94
6 | CC(C)C[C@H](CO)Nc1nc(SCc2ccccc2)nc2nc(N)sc12 [reference compound] | 7.32 | 6.27
7 | CC(C)C[C@H](CO)Nc1nc(SCc2ccccc2Cl)nc2nc(N)sc12 [reference compound] | 7.29 | 5.74
8 | CC(C)C[C@H](CO)Nc1nc(SCc2cccc(C#N)c2)nc2nc(N)sc12 [reference compound] | 6.81 | 5.70
9 | CCC[C@H](CO)Nc1nc(SCc2ccccc2)nc2nc(N)sc12 [reference compound] | 6.23 | 6.27
